The text below walks through data of paper PMC3885398, “Evaluation of the Antitumor Effects of BPR1J-340, a Potent and Selective FLT3 Inhibitor, Alone or in Combination with an HDAC Inhibitor, Vorinostat, in AML Cancer” (PLoS ONE, 2014).

For one assay, the system named is A431. Briefly: Cell viability MTS assay. The class given is cell-based. Particulars: Homo sapiens, A-431; A431, non-leukemia; read-out: Proliferation GI50. On the procedure: (§1) Cell viability was assessed with an MTS assay as carried out as the method described previously. Cells were seeded in 96-well plates at a density of 10,000 cells per well for 16 hours and then treated with vehicle or various concentrations of compound in medium. The change in viable cells was quantitated using the MTS method (Promega, Madison, WI, USA) according to the manufacturer's recommended protocol or by cell counting under a microscope. The GC50 value was defined as the amount of compound that caused a 50% reduction in cell viability in comparison with DMSO-treated (vehicle) control and was calculated using Prism version 4 software (Graph-Pad Software, Inc., San Diego, CA, USA). The data are presented as the mean ± S.D. from three independent experiments. Cell growth were measured by trypan blue dye exclusion method. Cells (1×10^4 mL^−1) were cultured in 12-well plates for 24 hours and then treated with different amounts of test compound and the same volumes of vehicle for 72 hours. The number of viable cells was counted by trypan blue dye staining using a hemocytometer at the indicated time point after drug treatment. The result was expressed as the mean ± S.D. from triplicate determinations.
(In general: Tetrazolium assays rely on reduction of a dye to a coloured formazan, in cell work by metabolically active cells.)

The next assay has as its system Detroit551. Nature of the assay: Cell viability MTS assay. The class given is cell-based. Particulars: Homo sapiens, Detroit 551; Detroit551, non-leukemia; read-out: Proliferation GI50. On the procedure: as §1
For the next assay, the system named is H1650. Briefly: Cell viability MTS assay. The class given is cell-based. The settings on record: Homo sapiens, NCI-H1650; H1650, non-leukemia; read-out: Proliferation GI50. As to the method: as §1
Another assay concerns H1975. Nature of the assay: Cell viability MTS assay. Particulars: Homo sapiens, NCI-H1975; H1975, non-leukemia; read-out: Proliferation GI50. The class given is cell-based. On the procedure: as §1
In a further assay the test system is H2228. Briefly: Cell viability MTS assay. The class given is cell-based. Particulars: Homo sapiens, NCI-H2228; H2228, non-leukemia; read-out: Proliferation GI50. As to the method:
as §1

The test system of another assay is Hep3B. Briefly: Cell viability MTS assay. Format: cell-based. Particulars: Homo sapiens, non-leukemia, read-out: Proliferation GI50. As to the method:
as §1

A further assay deals with Huh7. Briefly: Cell viability MTS assay. Format: cell-based. Particulars: Homo sapiens, Huh-7; Huh7, non-leukemia; read-out: Proliferation GI50. As to the method: as §1
A further assay relates to K562. Briefly: Cell viability MTS assay. Format: cell-based. Particulars: Homo sapiens; K562, leukemia; read-out: Proliferation GI50. As to the method: as §1
For another assay, the system named is MCF-7. Briefly: Cell viability MTS assay. The class given is cell-based. Particulars: Homo sapiens, MCF7; MCF-7, non-leukemia; read-out: Proliferation GI50. On the procedure: as §1
The next assay has as its system MKN45. Nature of the assay: Cell viability MTS assay. The class given is cell-based. Particulars: Homo sapiens, MKN-45; MKN45, non-leukemia; read-out: Proliferation GI50. As to the method:
as §1

Another assay concerns MiaPaCa-2. Briefly: Cell viability MTS assay. Format: cell-based. Particulars: Homo sapiens, MIA PaCa-2; MiaPaCa-2, non-leukemia; read-out: Proliferation GI50. As to the method: as §1
In the next assay the test system is NCIH460. Briefly: Cell viability MTS assay. The class given is cell-based. The settings on record: Homo sapiens, NCI-H460; NCIH460, non-leukemia; read-out: Proliferation GI50. On the procedure:
as §1

Another assay concerns RS4;11. Nature of the assay: Cell viability MTS assay. The settings on record: Homo sapiens; RS4;11, leukemia, wild-type FLT3, FLT3-independent; read-out: Proliferation GI50 (GC50 in the text). The class given is cell-based. On the procedure: as §1
The next assay has as its system RT4. Briefly: Cell viability MTS assay. Format: cell-based. Particulars: Homo sapiens, RT-4; RT4, non-leukemia; read-out: Proliferation GI50. As to the method:
as §1

The test system of another assay is U937. Briefly: Cell viability MTS assay. The class given is cell-based. Particulars: Homo sapiens, U-937; U937, leukemia; read-out: Proliferation GI50. As to the method:
as §1

Another assay concerns MOLM-13 cells. Briefly: Apoptosis induction, caspase-3 and PARP cleavage by Western blot. Particulars: MOLM-13, 10 nM, 24 hours. Format: cell-based, human. As to the method:
(§2) Cells were lysed in lysis buffer (50 mM Tris, pH 8.0, 150 mM NaCl, 1% Triton X-100, 0.5% sodium deoxycholate, 0.1% SDS, 1 mM sodium orthovanadate, 1 mM PMSF, and 1 mM DTT). Protein lysates were resolved by SDS-PAGE and transferred onto a polyvinylidene difluoride (PVDF) membrane (Millipore, Bedford, MA, USA). The membranes were immunoblotted with appropriate antibodies and detected using the SuperSignal reagent (Pierce, Rockford, IL, USA) followed by exposure to X-ray film.
(§3) As the inhibition of FLT3 signaling results in a loss of growth potential and an induction of apoptosis in FLT3-ITD expressing cells, the effects of BPR1J-340 on cell apoptotic response in FLT3-ITD^+ cells was investigated. The MOLM-13 and MV4;11 cells were treated with BPR1J-340 at different concentrations for 24 hours and analyzed for the induction of apoptosis using active caspase-3 and cleaved PARP (poly-ADP-ribose polymerase) analysis.
(§4) Figure 3 BPR1J-340 induces apoptosis in MOLM-13 and MV4;11 cells. […] MOLM-13 (A) and MV4;11 (B) cells were treated with BPR1J-340 at the indicated concentrations for 24 hours, and the cell lysates were then subjected to Western blot analysis using antibodies against caspase-3 and PARP (poly-ADP-ribose polymerase). (full length caspase-3 (FL-caspase-3), cleavage of caspase-3 (CL-caspase-3), full length poly(ADP-ribose) polymerase (FL-PARP), cleavage of PARP (CL-PARP)).
For orientation: A western blot detects proteins with antibodies after separation by electrophoresis.

For the next assay, the system named is MV4;11 cells. The description is as above. Format: cell-based, human. Particulars: MV4;11, 10 nM, 24 hours. On the procedure: as §2, §3, §4

The structures appear in SMILES notation.

For the compound `CCc1cc(NC(=O)NCc2ccc(-c3cc(NC(=O)c4ccc(CN5CCN(C)CC5)cc4)[nH]n3)cc2)no1` [BPR1J-340, N1-(3-4-[([(5-ethyl-3-isoxazolyl)amino]carbonylamino)methyl]phenyl-1H-5-pyrazolyl)-4-[(4-methylpiperazino)methyl]benzamide], the GI50 in the assay on A431 is 6.57 µM; in the assay with Detroit551 it was 8.34 µM; in the assay on H1650, 3.73 µM; in the assay on H1975 it was 2.61 µM; in the assay with H2228 it was 2.52 µM; with Hep3B, 8.31 µM. Further, the GI50 came to 9.74 µM in the assay with Huh7; 6.37 µM with K562; 11.3 µM with MCF-7; 3.58 µM in the assay on MKN45; 9.96 µM in the assay with MiaPaCa-2; 13.2 µM with NCIH460. The GI50 with RS4;11 amounted to 0.77 ± 0.36 µM; in the assay with RT4 it was 7.03 µM; with U937, 2.4 µM. Also, the “cleavage of caspase-3 and PARP (apoptosis)” value in the assay on MOLM-13 cells and in the assay with MV4;11 cells was “significant cleavage” in each case.
